Like-named read-outs stand apart in the source and are kept apart here.
Columns and labels:
CDK2-CYCLINA = target: T1, CDK2-CYCLINA (Homo sapiens, UniProt P24941); experiment: Microfluidic LabChip kinase inhibition assay, CDK2-CyclinA; format: biochemical; conditions: 50 μM ATP
T1 construct: purchased Millipore

CDK9-CYCLINT1 = target: T2, CDK9-CYCLINT1 (Homo sapiens, UniProt P50750); experiment: Microfluidic LabChip kinase inhibition assay, CDK9-CyclinT1; format: biochemical; conditions: 10 μM ATP, read-out: CDK9 CyclinT1 IC50
T2 construct: purchased Carna

CDK1/B = CDK1/B (Homo sapiens, UniProt P06493); experiment: Additional inhibition assay, CDK1/B; format: biochemical
CDK7 CyclinH = CDK7 CyclinH (Homo sapiens, UniProt P50613); experiment: Additional inhibition assay, CDK7 CyclinH; format: biochemical
CDK4-CYCLIND1 = CDK4-CYCLIND1 (Homo sapiens, UniProt P11802); experiment: Microfluidic LabChip kinase inhibition assay, CDK4-CyclinD1; conditions: CDK4 CyclinD1 IC50 (μM), 200 μM ATP, second value in parentheses on the next line
Sequence of CDK4-CYCLIND1 (P11802 whole entry): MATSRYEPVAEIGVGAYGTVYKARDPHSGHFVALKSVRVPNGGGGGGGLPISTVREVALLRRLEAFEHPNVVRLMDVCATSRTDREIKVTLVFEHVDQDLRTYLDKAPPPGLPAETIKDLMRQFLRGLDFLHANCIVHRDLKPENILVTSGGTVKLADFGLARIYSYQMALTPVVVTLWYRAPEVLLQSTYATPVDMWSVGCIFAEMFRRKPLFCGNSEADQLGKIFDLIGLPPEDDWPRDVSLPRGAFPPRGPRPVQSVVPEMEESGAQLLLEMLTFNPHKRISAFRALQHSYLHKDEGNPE
Sequence of CDK4-CYCLIND1 (P24385 whole entry partner): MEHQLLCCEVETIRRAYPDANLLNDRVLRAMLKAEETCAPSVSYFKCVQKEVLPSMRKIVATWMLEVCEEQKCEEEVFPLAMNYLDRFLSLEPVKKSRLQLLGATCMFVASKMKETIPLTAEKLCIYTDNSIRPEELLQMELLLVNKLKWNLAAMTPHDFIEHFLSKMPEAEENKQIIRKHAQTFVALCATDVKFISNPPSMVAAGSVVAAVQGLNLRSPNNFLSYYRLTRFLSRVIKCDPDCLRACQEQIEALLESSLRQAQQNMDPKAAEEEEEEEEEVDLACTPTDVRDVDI

Sequence of CDK7 CyclinH (P50613 whole entry): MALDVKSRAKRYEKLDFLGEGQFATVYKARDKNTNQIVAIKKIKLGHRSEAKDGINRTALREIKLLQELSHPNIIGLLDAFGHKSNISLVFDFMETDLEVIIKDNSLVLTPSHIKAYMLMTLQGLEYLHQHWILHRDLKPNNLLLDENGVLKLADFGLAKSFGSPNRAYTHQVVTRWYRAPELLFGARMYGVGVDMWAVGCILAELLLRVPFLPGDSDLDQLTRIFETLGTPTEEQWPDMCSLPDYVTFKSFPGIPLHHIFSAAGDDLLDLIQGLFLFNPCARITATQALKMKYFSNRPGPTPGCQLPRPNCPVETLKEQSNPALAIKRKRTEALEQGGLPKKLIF
Sequence of CDK7 CyclinH (P51946 whole entry partner): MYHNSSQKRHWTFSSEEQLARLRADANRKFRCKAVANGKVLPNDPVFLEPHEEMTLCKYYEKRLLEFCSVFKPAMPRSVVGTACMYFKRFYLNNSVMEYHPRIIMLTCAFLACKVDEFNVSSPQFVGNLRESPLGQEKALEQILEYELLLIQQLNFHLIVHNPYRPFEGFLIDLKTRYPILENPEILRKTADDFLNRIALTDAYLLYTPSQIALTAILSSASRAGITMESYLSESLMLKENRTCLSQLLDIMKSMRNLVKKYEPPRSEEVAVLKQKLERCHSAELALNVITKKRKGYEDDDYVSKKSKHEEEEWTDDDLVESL
Sequence of CDK7 CyclinH (P51948 whole entry partner): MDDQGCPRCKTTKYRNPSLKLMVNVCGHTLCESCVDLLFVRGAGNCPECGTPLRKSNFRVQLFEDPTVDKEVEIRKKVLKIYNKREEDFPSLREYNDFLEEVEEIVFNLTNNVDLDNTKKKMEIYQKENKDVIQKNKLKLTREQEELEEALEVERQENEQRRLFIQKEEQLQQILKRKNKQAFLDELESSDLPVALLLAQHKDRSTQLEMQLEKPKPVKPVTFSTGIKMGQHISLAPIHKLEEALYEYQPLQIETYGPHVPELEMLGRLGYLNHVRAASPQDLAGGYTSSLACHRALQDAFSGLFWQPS
Sequence of CDK1/B (P06493 whole entry): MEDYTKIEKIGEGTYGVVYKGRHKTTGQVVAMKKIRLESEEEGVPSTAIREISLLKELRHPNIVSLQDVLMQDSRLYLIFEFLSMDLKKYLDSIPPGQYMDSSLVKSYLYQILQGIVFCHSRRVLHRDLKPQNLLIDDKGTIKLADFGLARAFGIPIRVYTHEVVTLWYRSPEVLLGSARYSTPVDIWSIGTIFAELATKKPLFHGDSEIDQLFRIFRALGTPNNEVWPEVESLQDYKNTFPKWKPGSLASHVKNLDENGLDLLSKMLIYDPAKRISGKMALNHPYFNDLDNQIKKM
Sequence of CDK1/B (P14635 whole entry partner): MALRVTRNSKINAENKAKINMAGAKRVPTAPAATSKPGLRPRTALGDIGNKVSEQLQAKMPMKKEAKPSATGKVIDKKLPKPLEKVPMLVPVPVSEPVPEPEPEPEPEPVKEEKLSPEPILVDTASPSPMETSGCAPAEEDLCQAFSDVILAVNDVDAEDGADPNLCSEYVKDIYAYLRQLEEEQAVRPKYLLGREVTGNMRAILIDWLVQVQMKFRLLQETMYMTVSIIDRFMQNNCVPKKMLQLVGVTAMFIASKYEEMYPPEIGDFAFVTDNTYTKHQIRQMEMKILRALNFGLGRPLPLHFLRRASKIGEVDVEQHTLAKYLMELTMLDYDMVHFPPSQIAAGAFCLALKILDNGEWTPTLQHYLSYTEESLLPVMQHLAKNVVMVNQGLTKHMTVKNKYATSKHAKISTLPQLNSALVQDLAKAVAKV
T2 sequence (P50750 whole entry): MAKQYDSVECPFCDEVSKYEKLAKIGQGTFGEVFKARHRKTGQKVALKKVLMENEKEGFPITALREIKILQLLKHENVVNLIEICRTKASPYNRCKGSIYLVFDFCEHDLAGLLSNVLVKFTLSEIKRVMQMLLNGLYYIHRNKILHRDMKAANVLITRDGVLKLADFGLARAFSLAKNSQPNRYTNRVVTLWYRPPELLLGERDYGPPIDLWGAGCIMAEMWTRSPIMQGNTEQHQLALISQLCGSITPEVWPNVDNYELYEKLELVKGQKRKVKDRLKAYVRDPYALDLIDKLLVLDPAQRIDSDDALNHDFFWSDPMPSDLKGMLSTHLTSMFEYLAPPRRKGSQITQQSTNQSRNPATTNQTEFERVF
T2 sequence (O60563 whole entry partner): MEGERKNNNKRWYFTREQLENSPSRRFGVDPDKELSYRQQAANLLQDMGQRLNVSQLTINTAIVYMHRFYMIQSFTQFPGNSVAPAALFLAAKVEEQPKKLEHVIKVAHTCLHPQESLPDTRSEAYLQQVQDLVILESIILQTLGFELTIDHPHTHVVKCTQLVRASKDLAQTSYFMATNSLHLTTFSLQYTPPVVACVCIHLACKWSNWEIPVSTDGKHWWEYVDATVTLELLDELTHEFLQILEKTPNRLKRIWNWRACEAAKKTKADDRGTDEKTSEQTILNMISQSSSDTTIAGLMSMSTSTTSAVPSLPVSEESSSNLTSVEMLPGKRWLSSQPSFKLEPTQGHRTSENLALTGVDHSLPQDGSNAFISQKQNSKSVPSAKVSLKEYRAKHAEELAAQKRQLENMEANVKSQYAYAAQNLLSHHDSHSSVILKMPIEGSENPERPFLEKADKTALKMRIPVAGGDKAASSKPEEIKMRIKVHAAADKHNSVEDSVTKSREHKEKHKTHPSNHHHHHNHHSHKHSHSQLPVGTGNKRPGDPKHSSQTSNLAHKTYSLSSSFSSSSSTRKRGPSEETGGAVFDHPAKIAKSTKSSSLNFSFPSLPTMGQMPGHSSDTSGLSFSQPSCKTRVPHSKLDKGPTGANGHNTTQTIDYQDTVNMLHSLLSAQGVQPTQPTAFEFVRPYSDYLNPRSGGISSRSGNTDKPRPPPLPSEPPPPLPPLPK

IC50 (CDK2-CYCLINA; Table 3a): > 10 µM | IC50 (CDK2-CYCLINA; Table 3b): > 10 µM | IC50 (CDK9-CYCLINT1; Table 3a): > 10 µM | IC50 (CDK9-CYCLINT1; Table 3b): > 10 µM | IC50 (CDK1/B; Table 3a): > 10 µM | IC50 (CDK1/B; Table 3b): > 10 µM | IC50 (CDK7 CyclinH; Table 3a): > 10 µM | IC50 (CDK7 CyclinH; Table 3b): > 10 µM | IC50 (CDK4-CYCLIND1; Table 3a): 3.96 µM | IC50 (CDK4-CYCLIND1; Table 3b): 3.96 µM
Structure (SMILES): CN(C)CCOc1ccc(Nc2ncc3c(n2)N(C2CCCC2)C2(CCNC2=O)C3)nc1 (stereo not shown) [Compound C210, 7′-cyclopentyl-2′-((5-(2-(dimethylamino)ethoxy)pyridin-2-yl)amino)-5′,7′-dihydrospiro[pyrrolidine-3,6′-pyrrolo[2,3-d]pyrimidin]-2-one]

Source: patent US20230065740A1, “CYCLIN-DEPENDENT KINASE INHIBITORS” (SPV THERAPEUTICS INC., priority 2018, published 2023)
